How the values were obtained:
[1] = test system: Caco-2; assay: 2D 7-day MTS assay, cell proliferation on hydrogels; assay type: cell-based; settings: Caco-2, 2D on hydrogel, days 1, 4, 7, 490 nm, FIG. 7
Experimental: (§1) At the proper confluency, the plates were washed with 10 mL of DPBS followed by an addition of 5 mL of trypsin and a 5 min incubation time at 37° C. Upon the conclusion of the incubation time light microscopy was used to determine that the cells had become detached. 5 mL of DMEM-10-1 was added to the plate and the trypsin/DMEM mixture was transferred into a 15 mL conical tube. A 1:4:5 ratio of cell mixture/DMEM-10-1/trypan blue was created in a 2.0 mL cryogenic vial. The mixture contained ˜1.2×10^5 cells-mL-1. The cells were pelleted down by centrifugation at 1500 rpm for 5 minutes and the trypsin/DMEM mixture was aspirated. The cells were resuspended in 10 mL of DMEM-10-1. For the MTS assay, 3.0×10^4 cells per well were seeded (In total 2.43×10^6 cells are needed for 81 wells). In each well (n=3 per time point) of a 96 well plate 16 μL of Heprasil® ([…], 1% w/v), 16 μL of Gelatin-S® (10 mg-mL-1, 1% w/v), 4 μL of Extralink® (5 mg 0.250 μL-1, 2% w/v), and 4 μL of modular catecholamine ([…], 3.6 mM, 1% w/v), C1.1 and C1.2, respectively were mixed by gently pipetting the solution up and down. The wells were then exposed to UV radiation (˜222 nm) for 3 seconds at distance of 1 cm to initiate crosslinking and form the hydrogel matrix. Approximately 30,000 cells were seeded per well; 200 μL of DMEM+10% FBS+1% pen-strep media at a density of 1.2×10^5 cells-mL-1 were aliquoted into each well, Caco-2 and HepG2 cell lines, respectively. A total of 27 wells per time point (3 per condition-positive control, catecholamine (C1.1), and catecholamide (C1.2) for each cell line, Caco-2 and HepG2. For the 3D cell cultural technique and amount of cells used in the live/dead assay refer to the Live/Dead Assay section.
(§2) The MTS assay is widely-used as a nonradioactive quantification of cellular proliferation, viability, and cytotoxicity.28 The MTS assay based on the reduction of MTS tetrazolium compound by viable cells to generate a colored formazan product that is soluble in cell culture media. This conversion is thought to be carried out by NAD(P)H-dependent dehydrogenase enzymes in metabolically active cells. MTS assays were performed using a CellTiter 96® AQueous One Solution Cell Proliferation Assay (G3582, Promega) at days 1, 4, 7. […] At the conclusion of the 45-minute incubation period a Molecular Device SpectraMax M5 plate reader was used to determine the optical density of each well monitored at 490 nm. […] Reported uncertainties were calculated using the standard deviations between the normalized OD values for n=3 runs of each condition.
(§3) In addition to Live/Dead assays, MTS assays were used to quantify the proliferation of cells. In this case, the ability for cells to proliferate in 2D when seeded on the hydrogels was assessed.

[2] = test system: HepG2; assay: as above; assay type: cell-based; settings: HepG2, 2D on hydrogel, days 1, 4, 7, 490 nm, FIG. 7
Experimental: as §1, §2, §3

Row | SMILES | cell proliferation, normalized optical density (MTS) compared to control [1] | cell proliferation, normalized optical density (MTS) compared to control [2]
1 | C#CCNCc1ccc(O)c(O)c1 [Compound C1.1] | higher | higher
2 | C#CCNC(=O)Cc1ccc(O)c(O)c1 [Compound C1.2] | higher | higher

From US11286231B2, “Hydrogen-bonding compounds, compositions comprising the same, and methods of preparing and using the same” (Wake Forest University Health Sciences, priority 2016, dated 2022)
